Data taken from PubChem BioAssay (NCI).
Values joined by “and” are separate entries in the source; they are usually repeats but may differ in a detail not shown here. Identical values can stand only once.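 Five concentrations, 48 hours, 96-well plates. Here, GI50 denotes the concentration required for 50% inhibition of growth. TGI denotes the concentration required for complete inhibition of growth.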

Columns and labels:
Experiment in all cases: NCI anticancer screen, dose series, 48 h; in the data active = GI50 below about 0.43 µM; inactive = the rest
[1] = tested on: 786-0 renal
[2] = tested on: A498 renal
[3] = tested on: A549 NSCLC
[4] = tested on: ACHN renal
[5] = tested on: CAKI-1 renal
[6] = tested on: COLO 205 colon
[7] = tested on: DLD-1 colon
[8] = tested on: DMS 114 small cell lung
[9] = tested on: DMS 273 small cell lung
[10] = tested on: EKVX NSCLC
[11] = tested on: HCC-2998 colon
[12] = tested on: HCT-116 colon
[13] = tested on: HCT-15 colon
[14] = tested on: HL-60(TB) leukemia
[15] = tested on: HOP-18 NSCLC
[16] = tested on: HOP-62 NSCLC
[17] = tested on: HOP-92 NSCLC
[18] = tested on: HT29 colon
[19] = tested on: IGROV1 ovarian
[20] = tested on: K-562 leukemia
[21] = tested on: KM12 colon
[22] = tested on: KM20L2 colon
[23] = tested on: LOX IMVI melanoma
[24] = tested on: LXFL 529 NSCLC
[25] = tested on: MALME-3M melanoma
[26] = tested on: MOLT-4 leukemia
[27] = tested on: NCI-H226 lung
[28] = tested on: NCI-H23 lung
[29] = tested on: NCI-H460 lung
[30] = tested on: NCI-H522 lung
[31] = tested on: OVCAR-3 ovarian
[32] = tested on: OVCAR-4 ovarian
[33] = tested on: OVCAR-5 ovarian
[34] = tested on: OVCAR-8 ovarian
[35] = tested on: RPMI-8226 leukemia
[36] = tested on: RXF 393 renal
[37] = tested on: RXF-631 renal
[38] = tested on: SF-268 CNS
[39] = tested on: SF-295 CNS
[40] = tested on: SF-539 CNS
[41] = tested on: SK-MEL-2 melanoma
[42] = tested on: SK-MEL-28 melanoma
[43] = tested on: SK-OV-3 ovarian
[44] = tested on: SN12C renal
[45] = tested on: SNB-19 CNS
[46] = tested on: SNB-75 CNS
[47] = tested on: SNB-78 CNS
[48] = tested on: SR leukemia
[49] = tested on: SW-620 colon
[50] = tested on: TK-10 renal
[51] = tested on: U251 CNS
[52] = tested on: UACC-257 melanoma
[53] = tested on: UACC-62 melanoma
[54] = tested on: XF 498 CNS
[55] = tested on: BT-549 breast
[56] = tested on: CCRF-CEM leukemia
[57] = tested on: DU-145 prostate
[58] = tested on: HS 578T breast
[59] = tested on: M14 melanoma
[60] = tested on: M19-MEL melanoma
[61] = tested on: MCF7 breast
[62] = tested on: MDA-MB-435
[63] = tested on: MDA-N
[64] = tested on: NCI/ADR-RES ovarian
[65] = tested on: PC-3 prostate
[66] = tested on: SK-MEL-5 melanoma
[67] = tested on: T-47D breast
[68] = tested on: UO-31 renal

COc1cc(CN[C@H]2CCc3cc(OC)c(OC)c(OC)c3-c3ccc(SC)c(=O)cc32)cc(OC)c1
42.5 nM and 30.7 nM: TGI [22]
10400 nM: TGI [20]
77100 nM: TGI [50]
> 100000 nM: TGI [3] | TGI [4] | TGI [5] | TGI [7] | TGI [10] | TGI [14] | TGI [15] | TGI [16] | TGI [19] | TGI [24] | TGI [25] | TGI [32] | TGI [33] | TGI [42] | TGI [44] | TGI [45] | TGI [47] | TGI [49] | TGI [52]
64.1 nM: TGI [46]
60.5 nM: TGI [53]
inactive: GI50 [15] > 100000 nM | GI50 [33] > 100000 nM
78.6 nM and 492 nM: TGI [28]
977 nM: TGI [54]
85500 nM: TGI [26]
140 nM: TGI [9]
167 nM: TGI [2]
108 nM and 74.8 nM: TGI [11]
62.7 nM and 25.1 nM: TGI [18]
87.3 nM and 63.5 nM: TGI [51]
24200 nM: TGI [35]
45.5 nM and 42.4 nM: TGI [40]
174 nM and 127 nM: TGI [12]
68700 nM: TGI [17]
31800 nM: TGI [34]
105 nM and 81.6 nM: TGI [6]
482 nM and 137 nM: TGI [21]
358 nM: TGI [37]
127 nM and 44.4 nM: TGI [31]
239 nM: TGI [13]
67.7 nM and 52 nM: TGI [30]
474 nM: TGI [41]
19400 nM: TGI [48]
37.2 nM: TGI [36]
active: GI50 [1] 30.7 nM | GI50 [4] 66.2 nM | GI50 [5] 28.2 nM | GI50 [6] 14.5 nM | GI50 [7] 23.2 nM | GI50 [8] 16.6 nM | GI50 [9] < 10 nM | GI50 [10] 28.7 nM | GI50 [11] 20.4 nM | GI50 [12] < 10 nM | GI50 [14] 24 nM | GI50 [16] 81.4 nM | GI50 [17] 207 nM | GI50 [18] < 10 nM | GI50 [19] 69 nM | GI50 [21] < 10 nM | GI50 [22] 13 nM | GI50 [23] 17.3 nM | GI50 [24] 21.4 nM | GI50 [25] < 10 nM | GI50 [26] 47.6 nM | GI50 [27] 23.1 nM | GI50 [28] 22.8 nM | GI50 [29] 31 nM | GI50 [30] 21.2 nM | GI50 [31] 14.5 nM | GI50 [34] 40 nM | GI50 [38] 24.8 nM | GI50 [39] 18.7 nM | GI50 [40] 17.3 nM | GI50 [41] 18.4 nM | GI50 [42] < 10 nM | GI50 [43] 17.1 nM | GI50 [44] 62.3 nM | GI50 [47] < 10 nM | GI50 [49] < 10 nM | GI50 [50] 41.2 nM | GI50 [51] 24.7 nM | GI50 [52] 103 nM
30800 nM: TGI [1]
95 nM and 91.9 nM: TGI [27]
50.5 nM and 61.3 nM: TGI [8]

CCOC(=O)NC(=O)c1cn(CCCOC(=O)CCCCCCCCC(=O)OCCCn2cc(C(=O)NC(=O)OCC)c(=O)n(C)c2=O)c(=O)n(C)c1=O
> 93800 nM: TGI [54]
> 96600 nM: TGI [16]
> 46400 nM: TGI [56]
> 77800 nM: TGI [46]
> 100000 nM: TGI [1] | TGI [2] | TGI [3] | TGI [4] | TGI [55] | TGI [5] | TGI [6] | TGI [7] | TGI [8] | TGI [9] | TGI [57] | TGI [10] | TGI [11] | TGI [12] | TGI [13] | TGI [14] | TGI [15] | TGI [17] | TGI [58] | TGI [18] | TGI [19] | TGI [20] | TGI [21] | TGI [22] | TGI [23] | TGI [24] | TGI [59] | TGI [60] | TGI [25] | TGI [61] | TGI [62] | TGI [63] | TGI [26] | TGI [27] | TGI [28] | TGI [29] | TGI [30] | TGI [64] | TGI [31] | TGI [32] | TGI [33] | TGI [34] | TGI [65] | TGI [35] | TGI [36] | TGI [37] | TGI [38] | TGI [39] | TGI [40] | TGI [41] | TGI [42] | TGI [66] | TGI [43] | TGI [44] | TGI [45] | TGI [48] | TGI [49] | TGI [67] | TGI [50] | TGI [51] | TGI [52] | TGI [53] | TGI [68]
